In PubChem BioAssay (NCI):
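Results reflect a 48-hour exposure of cells in 96-well plates to compound at five concentrations. At the GI50, growth is halved. TGI: concentration producing complete growth inhibition.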

Experiments:
Assay in all cases: inhibition of tumour cell growth, NCI panel, 48 h
[1] = system: CCRF-CEM leukemia
[2] = system: OVCAR-8 ovarian
[3] = system: A498 renal
[4] = system: SF-295 CNS
[5] = system: HCC-2998 colon
[6] = system: OVCAR-3 ovarian
[7] = system: TK-10 renal
[8] = system: MALME-3M melanoma
[9] = system: MCF7 breast
[10] = system: OVCAR-4 ovarian
[11] = system: HOP-92 NSCLC
[12] = system: DU-145 prostate
[13] = system: COLO 205 colon
[14] = system: SW-620 colon
[15] = system: SR leukemia
[16] = system: BT-549 breast
[17] = system: SK-OV-3 ovarian
[18] = system: RPMI-8226 leukemia
[19] = system: NCI-H23 lung
[20] = system: HT29 colon
[21] = system: HS 578T breast
[22] = system: IGROV1 ovarian
[23] = system: SF-268 CNS
[24] = system: M14 melanoma
[25] = system: SK-MEL-28 melanoma
[26] = system: SK-MEL-2 melanoma
[27] = system: ACHN renal
[28] = system: HL-60(TB) leukemia
[29] = system: SF-539 CNS
[30] = system: 786-0 renal
[31] = system: CAKI-1 renal
[32] = system: U251 CNS
[33] = system: T-47D breast
[34] = system: NCI-H522 lung
[35] = system: HCT-116 colon
[36] = system: SK-MEL-5 melanoma
[37] = system: MDA-MB-435
[38] = system: SN12C renal
[39] = system: EKVX NSCLC
[40] = system: KM12 colon
[41] = system: PC-3 prostate
[42] = system: HCT-15 colon
[43] = system: UACC-257 melanoma
[44] = system: RXF 393 renal
[45] = system: UACC-62 melanoma
[46] = system: MDA-MB-231 breast
[47] = system: HOP-62 NSCLC
[48] = system: NCI/ADR-RES ovarian
[49] = system: LOX IMVI melanoma
[50] = system: SNB-19 CNS
[51] = system: NCI-H460 lung
[52] = system: UO-31 renal
[53] = system: A549 NSCLC
[54] = system: MOLT-4 leukemia
[55] = system: OVCAR-5 ovarian
[56] = system: K-562 leukemia
[57] = system: NCI-H226 lung
[58] = system: SNB-75 CNS

Work on `COc1ccc(/C=C2\COc3ccc(O)c(O)c3C2=O)cc1` yielded a GI50 [1] of 333 nM, a TGI [1] of 9820 nM and a GI50 [2] of 458 nM. It also gave a TGI [2] of 18700 nM, a GI50 [3] of 1000 nM and a TGI [3] of 5550 nM. For the same compound, the GI50 [4] was 4620 nM, the TGI [4] was greater than 100000 nM and the GI50 [5] was 2450 nM. The TGI [5] was 6280 nM, the GI50 [6] was 511 nM and the TGI [6] was 4570 nM. For the same compound, the GI50 [7] was 1570 nM, the TGI [7] was greater than 27100 nM and the GI50 [8] was 751 nM. It also gave a TGI [8] of 2690 nM, a GI50 [9] of 464 nM and a TGI [9] greater than 100000 nM. It also gave a GI50 [10] of 2380 nM, a TGI [10] greater than 33200 nM and a GI50 [11] of 1140 nM. For the same compound, the TGI [11] was 6100 nM, the GI50 [12] was 1080 nM and the TGI [12] was greater than 31200 nM. The GI50 [13] was 3150 nM, the TGI [13] was 10800 nM and the GI50 [14] was 1310 nM. It also gave a TGI [14] of 4820 nM, a GI50 [15] of 403 nM and a TGI [15] greater than 100000 nM. The GI50 [16] was 511 nM, the TGI [16] was 4850 nM and the GI50 [17] was 923 nM. It also gave a TGI [17] greater than 100000 nM, a GI50 [18] of 317 nM and a TGI [18] of 1200 nM. It also gave a GI50 [19] of 2890 nM, a TGI [19] of 14900 nM and a GI50 [20] of 3270 nM. The TGI [20] was 19600 nM, the GI50 [21] was 422 nM and the TGI [21] was greater than 100000 nM. It also gave a GI50 [22] of 522 nM, a TGI [22] of 2490 nM and a GI50 [23] of 1340 nM. It also gave a TGI [23] of 6580 nM, a GI50 [24] of 308 nM and a TGI [24] greater than 48200 nM. It also gave a GI50 [25] of 1150 nM, a TGI [25] of 7470 nM and a GI50 [26] of 517 nM. The TGI [26] was 26900 nM, the GI50 [27] was 637 nM and the TGI [27] was 2000 nM. The GI50 [28] was 334 nM, the TGI [28] was 2090 nM and the GI50 [29] was 325 nM. It also gave a TGI [29] of 1170 nM, a GI50 [30] of 708 nM and a TGI [30] of 5270 nM. It also gave a GI50 [31] of 951 nM, a TGI [31] of 4230 nM and a GI50 [32] of 1310 nM. The TGI [32] was 6070 nM, the GI50 [33] was 1170 nM and the TGI [33] was 4710 nM. For the same compound, the GI50 [34] was 159 nM, the TGI [34] was 402 nM and the GI50 [35] was 2000 nM. The TGI [35] was 6850 nM, the GI50 [36] was 329 nM and the TGI [36] was 1250 nM. It also gave a GI50 [37] of 257 nM, a TGI [37] of 984 nM and a GI50 [38] of 391 nM. It also gave a TGI [38] of 2530 nM, a GI50 [39] of 2470 nM and a TGI [39] greater than 61300 nM. The GI50 [40] was 924 nM, the TGI [40] was 3950 nM and the GI50 [41] was 741 nM. It also gave a TGI [41] of 23600 nM, a GI50 [42] of 492 nM and a TGI [42] of 2740 nM. It also gave a GI50 [43] of 1470 nM, a TGI [43] of 8970 nM and a GI50 [44] of 440 nM. It also gave a TGI [44] of 1310 nM, a GI50 [45] of 513 nM and a TGI [45] of 2410 nM. It also gave a GI50 [46] of 420 nM, a TGI [46] of 3110 nM and a GI50 [47] of 2240 nM. It also gave a TGI [47] of 16200 nM, a GI50 [48] of 329 nM and a TGI [48] of 35700 nM. For the same compound, the GI50 [49] was 369 nM, the TGI [49] was 1520 nM and the GI50 [50] was 2980 nM. It also gave a TGI [50] greater than 100000 nM, a GI50 [51] of 2460 nM and a TGI [51] of 7940 nM. The GI50 [52] was 606 nM, the TGI [52] was 1970 nM and the GI50 [53] was 2550 nM. It also gave a TGI [53] of 16200 nM, a GI50 [54] of 376 nM and a TGI [54] of 20400 nM. It also gave a GI50 [55] of 2190 nM, a TGI [55] of 5850 nM and a GI50 [56] of 330 nM. For the same compound, the TGI [56] was greater than 100000 nM, the GI50 [57] was 2370 nM and the TGI [57] was 6900 nM. It also gave a GI50 [58] of 572 nM and a TGI [58] greater than 100000 nM.
